{
  "source": "patent US20100168165A1",
  "about": "“METHOD OF TREATING DISEASE INVOLVING MYELIN AND/OR AXONAL LOSS” (The United States of America, as represented by the …, priority 2007, published 2010)",
  "key": {"myelin-specific T cells": {"tested_on": "myelin-specific T cells", "assay": "Spleen recall proliferation to myelin antigen 20 days after immunization", "type": "in vivo", "conditions": "three animals per group, pooled; FIG. 9", "experimental": "Animals on control or Tempol feed are immunized with a myelin antigen, and the spleens are tested 20 days later for recall to antigen. Three animals per group are tested and the results are pooled (FIG. 9)."}, "neurofilament H": {"tested_on": "neurofilament H", "assay": "Spinal cord neurofilament H in passive EAE animals", "type": "in vivo, SJL mice", "set-up": "cumulative disease score / peak disease score: scale not given here", "experimental": "SJL animals are induced for disease by the passive transfer of encephalitogenic T cells as described in Example 1. Animals are placed on either Tempol or control feed. The spinal cords of the animals are analyzed 90 days post transfer.\nNeurofilament staining is representative of the presence of axons. During autoimmune or demyelinating processes, the loss of neurofilament H has been associated with axonal loss."}, "inflammatory infiltrates": {"tested_on": "inflammatory infiltrates", "assay": "Inflammatory infiltrate scoring of spinal cords at peak disease, passive EAE", "type": "in vivo, mice", "conditions": "5 animals per group, 11 cord levels, scale 1-5; FIG. 8", "experimental": "Animals induced passively for EAE with PLP-specific T cells are examined at peak disease for assessment of inflammatory infiltrates. The spinal cords from 5 animals per group (control-fed and Tempol-fed) are examined at 11 levels spanning the entire cord and assessed according to the following scale and an average inflammatory score is calculated per animal. Degree of inflammation: 1=1-2 mild infiltrates, little to no infiltration; 2=3+ infiltrates, +/− infiltration; 3=1-2 moderate infiltrates, 1-2 mild little/mild infiltrates; 4=3+ moderate infiltrates, or 1 severe/broad with or without mild infiltrates, extensive infiltration to parenchyma present; 5=2+ severe/broad parenchyma infiltrative, with or without additional mild/moderate associated infiltrates to parenchyma."}, "leukocytic infiltration": {"tested_on": "leukocytic infiltration", "assay": "Leukocyte count by flow cytometry in actively induced EAE", "type": "in vivo, C57BL/6J mice", "source_text": "Animals are placed on either Tempol or control feed, and the number of leukocytes are counted via flow cytometry."}, "[1]": {"tested_on": "passively induced chronic progressive EAE", "assay": "Passively induced chronic progressive EAE (transfer of PLP139-151-activated encephalitogenic T cells)", "type": "in vivo, SJL mice", "experimental": "(§1) SJL mice are placed on Tempol-containing food two weeks prior to the initiation of experimental autoimmune encephalomyelitis (EAE) either by active immunization with myelin antigens or the transfer of activated encephalitogenic T cells. Animals receive bacon-flavored control food and Tempol-containing food ad libitum (Bio-Serv, Frenchtown, N.J.). The composition of the control food and Tempol-containing food is identical with exception to the addition of Tempol at a concentration of 10 mg/gram of food (Mitchell et al., Free Radic. Biol. Med., 34: 93-102 (2003)). Bacon flavored food is used to mask the taste of Tempol. All experiments with animals are carried out according to protocols approved by and on file with the National Institute of Neurological Disorders and Stoke (NINDS) Animal Care and Use Committee (ACUC).\n(§2) For the EAE induction, all animals are female, 8-10 weeks of age at time of myelin protein immunization. Animals are immunized for active EAE induction with 200 μg of MOG35-55 peptide in 4 mg/ml H37Ra Mycobacterium/IFA with 200 ng pertussis toxin delivered intraperitoneally (IP) on days 0 and 2. For passive EAE induction, SJL animals are immunized with 75 μg of PLP139-151 peptide in 1 mg/ml H37Ra Mycobacterium/IFA (Difco, Detroit, Mich.). Ten days later, axillary and inguinal lymph nodes are removed and placed into culture with 5 μg/ml of PLP139-151 peptide. After 3 days, activated T cells are counted and 2 million blasted T cells are transferred IP to each SJL recipient mouse.\nMice are placed on control- or Tempol-containing food 14 days (T-14) prior to receipt of encephalitogenic T cells (day 0=date of T cell transfer). Mice are blindly evaluated for onset of disease and clinical scores were assigned following examination as follows: 0=no clinical signs; 1=flaccid tail; 2=paresis of one or both hind legs; 3=paralysis of one or both hind legs; 4=quadriparesis or quadriparalysis; 5=moribund. The cumulative score represents the mean of the summation of single scores recorded in each mouse over days 0 (day of T cell transfer) to day 48 post disease induction. PLP-specific T cells are capable of causing severe paralytic disease in the brain and spinal cord of control fed mice, yet Tempol-fed mice are protected showing decreased incidence of disease as well as reduced severity.\nSJL animals are induced for disease by the passive transfer of encephalitogenic T cells as described in Example 1. Animals are placed on either Tempol or control feed at either (i) 2 weeks prior to transfer, (ii) at the time of transfer, or (iii) at the onset of disease."}, "[2]": {"tested_on": "edema associated with inflammation and tissue damage", "assay": "Spinal cord T2 relaxation times (edema) in passive EAE", "type": "in vivo, SJL mice", "experimental": "SJL animals are induced for disease by the passive transfer of encephalitogenic T cells as described in Example 1. Animals are placed on either Tempol or control feed. In a spinal cord histogram, T2 relaxation times typically increase due to inflammation and edema during CNS autoimmunity/disease during EAE. […] In the control-fed animals, the spinal cord T2 relaxation times shifted to higher values due to edema and inflammation.\nThe average T2 relaxation times are measured for SJL passively-induced EAE animals on Tempol 2 weeks prior to T cell transfer. Five scans are collected per animal, which are pooled from: 2 control animals (10 total), 4 control-fed EAE animals (20 total), and 4 Tempol-fed EAE animals (20 total)."}, "MOG-induced active EAE": {"tested_on": "MOG-induced active EAE", "assay": "MOG-induced active EAE, switched to Tempol feed after onset of clinical signs", "type": "in vivo, mice", "conditions": "feed switched once 60% of animals show at least grade 1; FIG. 4", "experimental": "as §2"}, "[3]": {"tested_on": "actively induced chronic progressive EAE", "assay": "Actively induced chronic progressive EAE (MOG35-55 immunization), Tempol food from 14 days before immunization", "type": "in vivo, SJL mice", "experimental": "as §1, §2\nMice are placed on control- or Tempol-containing food 14 days (T-14) prior to immunization with MOG peptide for EAE induction (day 0=date of immunization). Mice are blindly evaluated for onset of disease and clinical scores are assigned following examination as follows: 0=no clinical signs; 1=flaccid tail; 2=paresis of one or both hind legs; 3=paralysis of one or both hind legs; 4=quadriparesis or quadriparalysis; 5=moribund. The cumulative score represents the mean of the summation of single scores recorded in each mouse over days 0 (day of immunization) to day 30 post disease induction. In this study, mice that are fed Tempol generate myelin antigen-specific T cells which are unable to cause paralytic disease in immunized mice."}, "[4]": {"conditions": "individual animals, passive EAE"}, "[5]": {"conditions": "clinical score 0-5, Tempol food from T-14, n = 10"}},
  "note": "Several values for one entry are separate records, joined by “and”; a condition that tells them apart may be missing. Equal values may be shown once.",
  "data": [
    {"smiles": "CC1(C)CC(O)CC(C)(C)N1[O]", "note": "[Tempol, 4-hydroxy-2,2,6,6-tetramethylpiperidine-1-oxyl]", "values": [
      {"measurement": "Generation of myelin-specific T cells by proliferative responses", "setting": "myelin-specific T cells", "result": "does not reduce the generation of myelin-specific T cells"},
      {"measurement": "cumulative disease score", "setting": "neurofilament H; [4]", "result": "14 and 103.25 and 83.75 and 105.25 and 28.25 and 83 and 0.5 and 87.25 and 28.75"},
      {"measurement": "peak disease score", "setting": "neurofilament H; [4]", "result": "2.25 (2×) and 3.5 (4×) and 2.75 and 2.5 and 0"},
      {"measurement": "average (relative amount of spinal cord neurofilament H)", "setting": "neurofilament H; individual animals, spinal cords analyzed 90 days post transfer", "result": "0.9652 and 0.4487 and 0.7 and 0.3589 and 0.8499 and 0.3415 and 0.9171 and 0.9553 and 1.104"},
      {"measurement": "Preservation of neurofilament H", "setting": "neurofilament H; versus control feed, FIG. 5 and Table 3", "result": "greater preservation of neurofilament H"},
      {"measurement": "Inflammatory infiltrates at peak disease", "setting": "inflammatory infiltrates", "result": "limits the inflammatory infiltrates"},
      {"measurement": "Inflammatory infiltrates at peak disease", "setting": "leukocytic infiltration; actively induced EAE, Table 4", "result": "limits the inflammatory infiltrates"},
      {"measurement": "Microglial activation (upregulation of MHC class II expression)", "setting": "leukocytic infiltration; compared to animals on control feed", "result": "reduces the degree of microglial activation"},
      {"measurement": "% B cell", "setting": "leukocytic infiltration; flow cytometry, peak disease", "result": "1.3% and 2.8%"},
      {"measurement": "% CD3", "setting": "leukocytic infiltration; flow cytometry, peak disease", "result": "11.1% and 11.2%"},
      {"measurement": "% mac/gran", "setting": "leukocytic infiltration; flow cytometry, peak disease", "result": "10.1% and 20.2%"},
      {"measurement": "% microglia", "setting": "leukocytic infiltration; flow cytometry, peak disease", "result": "68.5% and 55.6%"},
      {"measurement": "% total CD45 hi", "setting": "leukocytic infiltration; flow cytometry, peak disease", "result": "21.0% and 33.8%"},
      {"measurement": "CD4:CD8 ratio", "setting": "leukocytic infiltration; flow cytometry, peak disease", "result": "1.7 and 1.5"},
      {"measurement": "Cell #", "setting": "leukocytic infiltration; flow cytometry, peak disease", "result": "1.0 ×10^6"},
      {"measurement": "Effect on incidence and severity of EAE", "setting": "[1]; Table 2 and FIG. 2", "result": "reduces the incidence and severity"},
      {"measurement": "Incidence of disease", "setting": "[1]; Tempol 10 mg/gram of food from 14 days prior to T cell transfer, n = 10", "result": ".70"},
      {"measurement": "Average peak disease severity", "setting": "[1]; [5]", "result": 2.81},
      {"measurement": "Average cumulative disease score", "setting": "[1]; clinical score 0-5 summed over day 0 to day 48, Tempol food from T-14, n = 10", "result": 33.9},
      {"measurement": "Clinical sign at peak disease", "setting": "[1]; control animals: complete hind limb paralysis with forelimb weakness", "result": "hind limb paresis"},
      {"measurement": "Severity of clinical symptoms and cumulative disease score by time of administration", "setting": "[1]; feed started 2 weeks prior to transfer, at transfer, or at disease onset, FIG. 3", "result": "reduces the severity of clinical symptoms and the cumulative disease score regardless of the time of administration"},
      {"measurement": "Edema and inflammation by average T2 relaxation times", "setting": "[2]; Tempol 2 weeks prior to T cell transfer, to levels observed in healthy animals, FIG. 7", "result": "limits (e.g., reduces) the edema and inflammation"},
      {"measurement": "T2 relaxation times, spinal cord histogram", "setting": "[2]; versus control-fed EAE animals", "result": "lower T2 relaxation times"},
      {"measurement": "Time after feed administration until disease severity drops off", "setting": "MOG-induced active EAE", "result": "≤ 2", "unit": "days"},
      {"measurement": "Effect on incidence and severity of EAE", "setting": "[3]; Table 1 and FIG. 1", "result": "reduces the incidence and severity"},
      {"measurement": "Incidence of disease", "setting": "[3]; Tempol 10 mg/gram of food ad libitum from 14 days prior to MOG immunization, n = 10", "result": ".30"},
      {"measurement": "Average peak disease severity", "setting": "[3]; [5]", "result": 0.83},
      {"measurement": "Average cumulative disease score", "setting": "[3]; clinical score 0-5 summed over day 0 to day 30, Tempol food from T-14, n = 10", "result": 2.05}
    ]}
  ]
}
